According to US20060165814A1, “Amines, combination of amines and vanadium and amine vanadium salts for the treatment or prevention of dyslipidemia” (Genmedica Therapeutics SL, priority 2004, published 2006):

Tests used:
[1] = system: rat adipocytes; settings: amine in combination with low concentrations of vanadate; cited from earlier work
[2] = system: streptozotocin-induced diabetic rats; assay: Subcutaneous chronic administration, plasma triglyceride and free fatty acids in diabetic rats; assay type: in vivo, rat; settings: subcutaneously infused for 28 days; B6V10 1.25 or 2.5 μmol/kg/day, V10 1.25 μmol/kg/day; streptozotocin (100 mg/kg) diabetic rats
Excerpt: FIG. 2A though 2D are bar graphs showing plasma concentrations of insulin (FIG. 2A), glucose (FIG. 2B), free fatty acids (FIG. 2C) and triglycerides (FIG. 2D) measured in nondiabetic rats (C), streptozotocin-induced diabetic rats (Diab) or diabetic rats treated for 28 days with subcutaneously infused decanadate (V10, 1.25 μmol/kg/day) or hexaquis(benzylammonium) decavanadate (B6V10) at two different doses (1.25 μmol/kg/day or 2.5 μmol/kg/day). * indicates the existance of statistically significant differences from the Diab group at p<0.05.
Subcutaneous administration of hexaquis(benzylammonium) decavanadate was tested to determine whether it ameliorated the dyslipidemia associated with diabetes. Diabetes was induced in rats by intravenous administration of a large dose of streptozotocin (100 mg/kg), causing a complete disappearance of plasma insulin and very high concentrations of plasma glucose (FIGS. 2A and 2B). Induction of diabetes was also associated with substantial increases in plasma free fatty acid and triglyceride concentrations compared to nondiabetic rats (FIGS. 2C and 2D). Under these conditions, subcutaneous treatment with different doses of hexaquis(benzylammonium) decavanadate normalized plasma concentrations of free fatty acids and triglycerides so that no differences between control and hexaquis(benzylammonium) decavanadate-treated rats were detectable (FIGS. 2C and 2D).

[3] = system: streptozotocin-induced diabetic rats; assay: Subcutaneous chronic administration, plasma cholesterol in diabetic rats; assay type: in vivo, rat; settings: subcutaneously infused for 28 days; B6V10 1.25 or 2.5 μmol/kg/day, V10 1.25 μmol/kg/day; streptozotocin (100 mg/kg) diabetic rats
Excerpt: FIG. 3A through 3D show plasma concentrations of total cholesterol (FIG. 3A), nonesterified cholesterol (FIG. 3B), esterified cholesterol (FIG. 3C) and HDL-cholesterol (FIG. 3D) measured in nondiabetic rats (C), streptozotocin-induced diabetic rats (Diab) or diabetic rats treated for 28 days with subcutaneously infused decanadate (V10, 1.25 μmol/kg/day) or hexaquis(benzylammonium) decavanadate (B6V10) at two different doses (1.25 μmol/kg/day or 2.5 μmol/kg/day). * indicates the existance of statistically significant differences from the Diab group at p<0.05.
Subcutaneous administration of hexaquis(benzylammonium) decavanadate was performed to determine the effect on altered plasma concentrations of cholesterol associated to diabetes. Diabetes was induced in rats by intravenous administration of a large dose of streptozotocin (100 mg/kg). Experimentally-induced Diabetes was associated with substantial increases in total plasma cholesterol and nonesterified cholesterol and a reduction in esterified cholesterol concentrations compared to nondiabetic rats (FIG. 3A). HDL-cholesterol concentrations were unaltered by diabetes […]. Under these conditions, subcutaneous treatment with different doses of hexaquis(benzylammonium) decavanadate reduced plasma concentrations of total cholesterol and nonesterified cholesterol and increased esterified cholesterol concentrations so no differences between control and hexaquis(benzylammonium) decavanadate-treated rats were detectable (FIG. 3C).

[4] = system: streptozotocin-induced diabetic rats; assay: Oral chronic administration, plasma cholesterol in diabetic rats; assay type: in vivo, rat; settings: single daily oral dose for 17 days, 5 μmol/kg/day day 0-7 and 10 μmol/kg/day day 8-17
Excerpt: FIG. 1 is a bar graph of the plasma concentration of cholesterol (Ch) (expressed in mmol/L) measured in nondiabetic rats (C), streptozotocin-induced diabetic rats (D) or diabetic rats treated for 17 days with a single daily oral dose of hexaquis(benzylammonium) decavanadate (5 μmol/kg/day between day 0 and day 7 and 10 μmol/kg/day from day 8 to day 17 of treatment) (BV). Cholesterol concentrations in the D group were statistically significant from the C group at p<0.05.
Oral administration of hexaquis(benzylammonium) decavanadate was tested to determine whether it ameliorated dyslipidemia associated to diabetes. Diabetes was induced in rats by intravenous administration of streptozotocin, causing a substantial increase in plasma cholesterol concentrations compared to nondiabetic rats (FIG. 1).

Row | Molecule | glucose transport [1] | plasma concentration of free fatty acids [2] | plasma concentration of triglycerides [2] | plasma concentration of esterified cholesterol [3] | plasma concentration of nonesterified cholesterol [3] | plasma concentration of total cholesterol [3] | plasma cholesterol levels [4]
1 | NCCc1ccc(O)cc1 [tyramine] | stimulates glucose transport | – | – | – | – | – | –
2 | [O]=[V]([O-])([O-])[O][V]1(=[O])[O][V]2(=[O])[O][V](=[O])([O][V](=[O])([O-])[O-])[O][V](=[O])([O]2)[O][V]2(=[O])[O][V](=[O])([O][V](=[O])([O-])[O-])[O][V](=[O])([O]1)[O]2 (stereo not shown) [decavanadate, reference compound] | – | did not alter | did not alter | not significantly different | not significantly different | significant reduction | –
3 | NCc1ccccc1 [benzylamine] | stimulates glucose transport | – | – | – | – | – | –
4 | hexaquis(benzylammonium) decavanadate | – | normalized | normalized | increased | reduced | reduced | substantially reduced
